How the values were obtained:
Test in all cases: relative viability (nuclei count vs DMSO), 5 days (fraction); higher = more cells survive
XMD13-2 = compound: C1CC1C(=O)NC2=NNC3=C2C=CC(=C3)C4=CC(=CC=C4)C(=O)NC5CC5 [XMD13-2]
In short: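 Viability is treated-well nuclei as a fraction of vehicle-well nuclei, reported as the median across plates. Before counting, lung cancer cell lines were kept overnight at 37 °C in 1536-well plates, pinned with five √10-spaced library-drug doses on vehicle-anchored plates, and left 5 days without medium change, then fixed, permeabilised and Hoechst-stained in one step, imaged at 4× and counted by MetaXpress. A plate passed only if control CV was below 25% and at least one doubling occurred.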

ALW-II-49-7 + Pictilisib = compound: Cc1ccc(C(=O)Nc2cccc(C(F)(F)F)c2)cc1Nc1cncc(C(N)=O)c1 [ALW-II-49-7] + CS(=O)(=O)N1CCN(Cc2cc3nc(-c4cccc5[nH]ncc45)nc(N4CCOCC4)c3s2)CC1 [Pictilisib] (partner 1 µM)
In short: (§1)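 Each reported value is a median over duplicate plates. It expresses relative viability: treated-well nuclei count divided by vehicle-well nuclei count. Lung cancer cell lines in 1536-well plates were dosed by pin tool a day after seeding, alone with one drug or with a fixed anchor-drug dose plus five library-drug doses (not always all listed) in √10 steps, and nuclei were counted after 5 days.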

ALW-II-49-7 + Linsitinib = compound: Cc1ccc(C(=O)Nc2cccc(C(F)(F)F)c2)cc1Nc1cncc(C(N)=O)c1 [ALW-II-49-7] + C[C@]1(O)C[C@@H](c2nc(-c3ccc4ccc(-c5ccccc5)nc4c3)c3c(N)nccn32)C1 [Linsitinib] (partner 1 µM)
In short: as §1

Dasatinib + AZD7762 = compound: Cc1nc(Nc2ncc(C(=O)Nc3c(C)cccc3Cl)s2)cc(N2CCN(CCO)CC2)n1 [Dasatinib] + NC(=O)Nc1cc(-c2cccc(F)c2)sc1C(=O)N[C@H]1CCCNC1 [AZD7762] (partner 0.2 µM)
In short: as §1

Cell Line	relative viability (XMD13-2; 0.05 µM)	relative viability (XMD13-2; 0.1581 µM)	relative viability (XMD13-2; 0.5 µM)	relative viability (XMD13-2; 1.581 µM)	relative viability (XMD13-2; 5 µM)	relative viability (ALW-II-49-7 + Pictilisib; first compound 0.08 µM)	relative viability (ALW-II-49-7 + Pictilisib; first compound 0.253 µM)	relative viability (ALW-II-49-7 + Pictilisib; first compound 0.8 µM)	relative viability (ALW-II-49-7 + Pictilisib; first compound 2.53 µM)	relative viability (ALW-II-49-7 + Pictilisib; first compound 8 µM)	relative viability (ALW-II-49-7 + Linsitinib; first compound 0.08 µM)	relative viability (ALW-II-49-7 + Linsitinib; first compound 0.253 µM)	relative viability (ALW-II-49-7 + Linsitinib; first compound 0.8 µM)	relative viability (ALW-II-49-7 + Linsitinib; first compound 2.53 µM)	relative viability (ALW-II-49-7 + Linsitinib; first compound 8 µM)	relative viability (Dasatinib + AZD7762; first compound 0.005 µM)	relative viability (Dasatinib + AZD7762; first compound 0.01581 µM)	relative viability (Dasatinib + AZD7762; first compound 0.05 µM)	relative viability (Dasatinib + AZD7762; first compound 0.1581 µM)	relative viability (Dasatinib + AZD7762; first compound 0.5 µM)
COR-L 105	1.25	1.08	0.911	0.947	0.858	0.543	0.419	0.387	0.344	0.422	0.884	0.848	0.824	0.745	0.752					
LCLC-97TM1	0.974	0.917	0.95	0.7	0.903	0.213	0.119	0.269	0.159	0.195	0.19	0.171	0.174	0.176	0.155	0.161	0.274	0.218	0.17	0.0853
NCI-H520	1.09	1.09	1.08	0.851	0.643	0.234	0.302		0.264	0.259	0.779	1.04		1.16	0.951					
NCI-H1993	1.07	0.895	0.885	0.822	0.925	0.79	1.01	0.746	0.807	0.619	0.753	0.691	0.737	0.792	0.878	0.777	0.639	0.755	0.444	0.485
NCI-H1437	0.984	0.992	1.02	0.941	1.06	0.435	0.414		0.432	0.399	0.935	1.04		0.942	0.754	1.22	1.05	1.04	0.893	0.221
NCI-H522	1.08	1.03	0.935	0.918	0.745											0.857	0.73	0.882	0.654	0.634
NCI-H1563	1.07	1.03	1.09	0.966	1.06	0.573	0.661	0.643	0.595	0.657	1.18	1.18	1.31	1.34	1.22					
NCI-H661	0.971	1.04	0.971	0.976	0.844	0.377	0.345	0.348		0.351	0.631	0.534	0.493		0.536					
SK-MES-1	1.13	1.01	1.03	0.968	1.07	0.331	0.48	0.367	0.365	0.397	1.03	1.14	1.13	0.952	0.901					
NCI-H2170	1.03	0.954	0.986	1.01	0.881	0.25	0.302	0.294	0.317	0.286						0.864	0.779	0.633	0.409	0.278
NCI-H1648	1.14	0.764	0.84	0.94	0.814											0.677	0.725	0.724	0.369	0.254
EBC-1	1.07	1.09	1	0.858	0.508	0.315	0.316		0.242	0.244	0.83	0.784	0.358	0.856	0.391					
NCI-H1650	1.08	0.936	1.17	0.951	0.907	0.583	0.5	0.581	0.618	0.6										
SW 1573	1.08	0.998	1.09	0.941	0.874	0.475	0.486	0.465	0.47	0.465	0.867	0.906	0.903	0.795	0.768					
NCI-H1299	0.984	1.04	1.05	1.04	1.09	0.623	0.78	0.609	0.436	0.311	1.02	1.05	0.696	0.721	0.423					
SK-LU-1	1.07	1.03	1.19	1.05	0.924	0.522	0.715	0.44		0.514	1.03	1.22	1.19	0.953	0.793					
COR-L23	1.21	0.993	1.11	0.969	0.986	0.839	0.548	0.739	0.72	0.779	0.947	0.829	0.769	0.953	0.957					
A549	1.28	1.02	1.06	0.963	0.962	0.535	0.568	0.496	0.505	0.416	0.654	0.511	0.551	0.263	0.481					
NCI-H2023	1.18	1	0.992	0.986	1.02	0.244	0.206	0.251	0.221	0.217	0.653	0.579	0.697	0.679	0.645					
IA-LM	0.967	0.982	0.977	0.87	0.883	0.334	0.281	0.388	0.209	0.288	0.627	0.342	0.378	0.449	0.135					
NCI-H2009	0.989	1.13	1.22	1.04	1.07	0.836	0.828	0.783	0.575	0.438	1.21	1.12	1.09	1.02	1					
